The values below come from ChEMBL document CHEMBL4334438, “Discovery of novel glycogen synthase kinase-3α inhibitors: Structure-based virtual screening, preliminary SAR and biological evaluation for treatment of acute myeloid leukemia” (Eur J Med Chem, 2019).

For data set [1], the target named is Glycogen synthase kinase-3 alpha (Homo sapiens, UniProt P49840). As to the kind of experiment: Inhibition of human GSK-3alpha S449A mutant (2 to end residues) using phospho GS2 peptide as substrate after 40 mins in presence of [gamma-33ATP] by scintillation counting method.
Data set [2] concerns Tyrosine-protein kinase ABL1 (Homo sapiens), P00519 [T315I]. As to the kind of experiment: Inhibition of human ABL1 T315I mutant (27 to end residues) assessed as residual activity at 1 uM using EAIYAAPFAKKK as substrate incubated for 40 mins in presence of [gamma-33ATP] by scintillation counting based radiometry assay relative to control.
For data set [3], the target named is Calcium/calmodulin-dependent protein kinase type II subunit beta (Homo sapiens) (UniProt Q13554). As to the kind of experiment: Inhibition of recombinant human CaMK2beta (1 to 315 residues) assessed as residual activity at 1 uM using […] incubated for 40 mins in presence of [gamma-33ATP] by scintillation counting based radiometry assay relative to control.
Sequence of Calcium/calmodulin-dependent protein kinase type II subunit beta (Homo sapiens) (Q13554 whole entry, the tested form may be a part): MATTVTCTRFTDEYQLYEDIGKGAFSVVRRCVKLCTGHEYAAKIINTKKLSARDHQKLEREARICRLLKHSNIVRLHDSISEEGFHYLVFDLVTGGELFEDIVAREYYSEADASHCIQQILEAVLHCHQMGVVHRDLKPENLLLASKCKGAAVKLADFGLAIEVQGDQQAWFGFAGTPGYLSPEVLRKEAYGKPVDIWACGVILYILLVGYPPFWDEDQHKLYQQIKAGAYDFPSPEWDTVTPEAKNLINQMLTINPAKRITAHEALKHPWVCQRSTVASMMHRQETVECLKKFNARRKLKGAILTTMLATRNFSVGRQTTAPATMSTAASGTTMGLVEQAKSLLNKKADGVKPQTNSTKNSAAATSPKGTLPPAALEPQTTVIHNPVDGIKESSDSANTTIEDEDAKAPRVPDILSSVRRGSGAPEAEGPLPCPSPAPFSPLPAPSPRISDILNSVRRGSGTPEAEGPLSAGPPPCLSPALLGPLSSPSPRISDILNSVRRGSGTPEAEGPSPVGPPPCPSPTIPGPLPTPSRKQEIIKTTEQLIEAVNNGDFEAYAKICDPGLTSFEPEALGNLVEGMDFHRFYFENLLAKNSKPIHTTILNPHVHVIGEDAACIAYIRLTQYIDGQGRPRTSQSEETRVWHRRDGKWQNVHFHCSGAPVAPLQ

The target of data set [4] is Calcium/calmodulin-dependent protein kinase type 1D (Homo sapiens) (UniProt Q8IU85). As to the kind of experiment: Inhibition of recombinant full length human CaMK1delta assessed as residual activity at 1 uM […] incubated for 40 mins in presence of [gamma-33ATP] by scintillation counting based radiometry assay relative to control.
Sequence of Calcium/calmodulin-dependent protein kinase type 1D (Homo sapiens) (Q8IU85 whole entry, looked up): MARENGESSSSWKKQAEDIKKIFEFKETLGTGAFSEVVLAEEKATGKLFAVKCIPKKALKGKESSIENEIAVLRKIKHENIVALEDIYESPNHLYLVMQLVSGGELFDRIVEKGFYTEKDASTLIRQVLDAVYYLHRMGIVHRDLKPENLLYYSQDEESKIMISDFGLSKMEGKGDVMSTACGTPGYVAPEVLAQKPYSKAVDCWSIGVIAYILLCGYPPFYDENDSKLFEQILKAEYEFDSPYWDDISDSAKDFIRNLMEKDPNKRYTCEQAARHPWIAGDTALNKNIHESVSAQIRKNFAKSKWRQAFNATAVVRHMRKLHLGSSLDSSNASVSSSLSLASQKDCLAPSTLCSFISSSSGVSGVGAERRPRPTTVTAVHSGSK
In data set [5] the target is Serine/threonine-protein kinase 35 (Homo sapiens) (UniProt Q8TDR2). As to the kind of experiment: Inhibition of recombinant full length human CLIK1 assessed as residual activity at 1 uM using RSRSRSRSRSRS as substrate incubated 40 mins in presence of [gamma-33ATP] by scintillation counting based radiometry assay relative to control.
The target in data set [6] is Dual specificity tyrosine-phosphorylation-regulated kinase 1A (Homo sapiens) (UniProt Q13627). As to the kind of experiment: Inhibition of recombinant human DYRK1A assessed as residual activity at 1 uM using RRRFRPASPLRGPPK as substrate at 40 mins in presence of [gamma-33ATP] by scintillation counting based radiometry assay relative to control.
The target of data set [7] is Dual specificity tyrosine-phosphorylation-regulated kinase 1B (Homo sapiens) (UniProt Q9Y463). As to the kind of experiment: Inhibition of recombinant human DYRK1B assessed as residual activity at 1 uM using RRRFRPASPLRGPPK as substrate at 40 mins in presence of [gamma-33ATP] by scintillation counting based radiometry assay relative to control.
Data set [8] concerns the target Ephrin type-B receptor 1 (Homo sapiens) (UniProt P54762). As to the kind of experiment: Inhibition of recombinant human EphB1 (564 to end residues) assessed as residual activity at 1 uM using KVEKIGEGTYGVVYK as substrate at 40 mins in presence of [gamma-33ATP] by scintillation counting based radiometry assay relative to control.
Data set [9] has as its target Macrophage colony-stimulating factor 1 receptor (Homo sapiens) (UniProt P07333). As to the kind of experiment: Inhibition of recombinant human FMS (538 to end residues) assessed as residual activity at 1 uM using EEEEYEEEEEEYYIIEEEEEEYEEEEEEYYEEEEEEKKKK as substrate at 40 mins in presence of [gamma-33ATP] by scintillation counting based radiometry assay relative to control.

The target in data set [10] is GSK-3beta (H350L mutant) (Homo sapiens, UniProt P49841, H350L). As to the kind of experiment: Inhibition of human GSK-3beta H350L mutant (2 to end residues) assessed as residual activity at 1 uM using phospho GS2 peptide as substrate after 40 mins by [gamma-33ATP] radiometric assay relative to control. The note with it: human GSK-3beta H350L mutant enzyme (residues 2 to end), probe phospho GS2 peptide, read-out: Activity.
Sequence of GSK-3beta (H350L mutant) (P49841 whole entry, looked up, stated change not applied, the tested form may be a part): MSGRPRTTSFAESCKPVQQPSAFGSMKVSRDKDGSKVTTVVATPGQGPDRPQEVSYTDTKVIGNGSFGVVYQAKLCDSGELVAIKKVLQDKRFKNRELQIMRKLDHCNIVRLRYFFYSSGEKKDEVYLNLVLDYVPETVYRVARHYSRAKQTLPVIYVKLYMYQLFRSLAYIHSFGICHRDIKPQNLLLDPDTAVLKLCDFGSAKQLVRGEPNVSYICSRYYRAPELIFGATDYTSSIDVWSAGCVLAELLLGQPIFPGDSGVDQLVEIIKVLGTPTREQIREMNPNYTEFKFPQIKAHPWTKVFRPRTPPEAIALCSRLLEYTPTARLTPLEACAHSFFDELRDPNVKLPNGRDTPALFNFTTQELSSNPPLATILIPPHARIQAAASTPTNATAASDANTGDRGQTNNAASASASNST

Data set [11] deals with Serine/threonine-protein kinase pim-3 (Homo sapiens) (UniProt Q86V86). As to the kind of experiment: Inhibition of recombinant human Pim3 (2 to end residues) assessed as residual activity at 1 uM using RSRHSSYPAGT as substrate measured after 40 mins in presence of [gamma33P]ATP by scintillation counting method relative to control.
The target in data set [12] is Protein kinase C beta type (Homo sapiens) (UniProt P05771). As to the kind of experiment: Inhibition of recombinant human PKCbeta1 (2 to end residues) assessed as residual activity at 1 uM using histone H1 as substrate measured after 40 mins in presence of [gamma33P]ATP by scintillation counting method relative to control.
The target in data set [13] is Serine/threonine-protein kinase D2 (Homo sapiens) (UniProt Q9BZL6). As to the kind of experiment: Inhibition of recombinant full-length human PKD2 assessed as residual activity at 1 uM using KKLNRTLSVA as substrate measured after 40 mins in presence of [gamma33P]ATP by scintillation counting method relative to control.
Sequence of Serine/threonine-protein kinase D2 (Homo sapiens) (Q9BZL6 whole entry): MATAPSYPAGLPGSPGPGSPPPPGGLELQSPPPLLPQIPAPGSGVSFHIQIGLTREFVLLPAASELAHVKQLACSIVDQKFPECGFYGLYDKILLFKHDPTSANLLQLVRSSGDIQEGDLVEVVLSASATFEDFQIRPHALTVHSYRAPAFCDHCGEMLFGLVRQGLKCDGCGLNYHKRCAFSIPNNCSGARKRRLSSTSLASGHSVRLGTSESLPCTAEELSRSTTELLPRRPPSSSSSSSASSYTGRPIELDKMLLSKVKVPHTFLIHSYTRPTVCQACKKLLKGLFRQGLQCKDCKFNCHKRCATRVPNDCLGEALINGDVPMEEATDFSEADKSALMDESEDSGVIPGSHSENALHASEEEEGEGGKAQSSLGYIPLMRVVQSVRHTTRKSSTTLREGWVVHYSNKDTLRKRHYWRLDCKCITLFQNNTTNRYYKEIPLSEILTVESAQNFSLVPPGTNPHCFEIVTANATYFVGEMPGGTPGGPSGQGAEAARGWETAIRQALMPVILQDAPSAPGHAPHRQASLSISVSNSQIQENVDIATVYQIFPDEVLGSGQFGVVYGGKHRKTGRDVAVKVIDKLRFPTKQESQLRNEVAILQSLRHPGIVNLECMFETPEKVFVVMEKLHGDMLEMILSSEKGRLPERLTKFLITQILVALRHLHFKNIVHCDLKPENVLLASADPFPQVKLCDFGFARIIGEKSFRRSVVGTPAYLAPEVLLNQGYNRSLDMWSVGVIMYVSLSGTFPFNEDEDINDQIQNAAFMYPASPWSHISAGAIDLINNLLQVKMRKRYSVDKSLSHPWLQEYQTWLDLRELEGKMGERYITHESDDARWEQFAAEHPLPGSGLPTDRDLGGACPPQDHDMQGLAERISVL
For data set [14], the target named is T1, cGMP-dependent protein kinase 1 (Homo sapiens) (UniProt Q13976).
T1 sequence (whole entry): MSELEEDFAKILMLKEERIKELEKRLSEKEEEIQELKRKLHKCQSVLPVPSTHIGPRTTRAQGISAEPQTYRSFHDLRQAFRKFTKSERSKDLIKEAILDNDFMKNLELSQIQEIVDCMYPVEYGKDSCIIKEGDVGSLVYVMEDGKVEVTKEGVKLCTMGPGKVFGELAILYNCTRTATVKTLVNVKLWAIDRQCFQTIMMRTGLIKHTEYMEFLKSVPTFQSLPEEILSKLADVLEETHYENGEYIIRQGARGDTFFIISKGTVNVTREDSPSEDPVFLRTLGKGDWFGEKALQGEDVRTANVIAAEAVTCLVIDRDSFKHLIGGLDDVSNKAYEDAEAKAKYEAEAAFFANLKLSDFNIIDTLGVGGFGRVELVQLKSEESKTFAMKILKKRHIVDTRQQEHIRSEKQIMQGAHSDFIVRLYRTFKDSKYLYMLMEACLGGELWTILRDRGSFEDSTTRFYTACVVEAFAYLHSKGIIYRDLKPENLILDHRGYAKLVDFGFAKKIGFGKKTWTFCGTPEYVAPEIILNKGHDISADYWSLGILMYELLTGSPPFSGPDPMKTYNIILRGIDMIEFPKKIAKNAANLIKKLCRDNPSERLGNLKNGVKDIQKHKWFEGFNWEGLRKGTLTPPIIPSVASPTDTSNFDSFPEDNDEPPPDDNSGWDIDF
As to the kind of experiment: Inhibition of recombinant full-length human PKG1alpha assessed as residual activity at 1 uM using RRRLSFAEPG as substrate measured after 40 mins in presence of [gamma33P]ATP by scintillation counting method relative to control.

Data set [15] concerns the target Protein-tyrosine kinase 2-beta (Homo sapiens) (UniProt Q14289). As to the kind of experiment: Inhibition of recombinant human full length PYK2 assessed as residual activity at 1 uM using poly(Glu, Tyr) 4:1 as substrate measured after 40 mins in presence of [gamma33P]ATP by scintillation counting method relative to control.
Data set [16] addresses Proto-oncogene tyrosine-protein kinase Src (Homo sapiens) (UniProt P12931). As to the kind of experiment: Inhibition of human Src (1 to 530 residues) assessed as residual activity at 1 uM using GGEEEEYFELVKKKK as substrate measured after 40 mins in presence of [gamma33P]ATP by scintillation counting method relative to control.
Data set [17] concerns the target Serine/threonine-protein kinase WNK3 (Homo sapiens) (UniProt Q9BYP7). As to the kind of experiment: Inhibition of human WNK3 (1 to 434 residues) assessed as residual activity at 1 uM using myelin basic protein as substrate measured after 40 mins in presence of [gamma33P]ATP by scintillation counting method relative to control.

Sequence of Ephrin type-B receptor 1 (Homo sapiens) (P54762 whole entry): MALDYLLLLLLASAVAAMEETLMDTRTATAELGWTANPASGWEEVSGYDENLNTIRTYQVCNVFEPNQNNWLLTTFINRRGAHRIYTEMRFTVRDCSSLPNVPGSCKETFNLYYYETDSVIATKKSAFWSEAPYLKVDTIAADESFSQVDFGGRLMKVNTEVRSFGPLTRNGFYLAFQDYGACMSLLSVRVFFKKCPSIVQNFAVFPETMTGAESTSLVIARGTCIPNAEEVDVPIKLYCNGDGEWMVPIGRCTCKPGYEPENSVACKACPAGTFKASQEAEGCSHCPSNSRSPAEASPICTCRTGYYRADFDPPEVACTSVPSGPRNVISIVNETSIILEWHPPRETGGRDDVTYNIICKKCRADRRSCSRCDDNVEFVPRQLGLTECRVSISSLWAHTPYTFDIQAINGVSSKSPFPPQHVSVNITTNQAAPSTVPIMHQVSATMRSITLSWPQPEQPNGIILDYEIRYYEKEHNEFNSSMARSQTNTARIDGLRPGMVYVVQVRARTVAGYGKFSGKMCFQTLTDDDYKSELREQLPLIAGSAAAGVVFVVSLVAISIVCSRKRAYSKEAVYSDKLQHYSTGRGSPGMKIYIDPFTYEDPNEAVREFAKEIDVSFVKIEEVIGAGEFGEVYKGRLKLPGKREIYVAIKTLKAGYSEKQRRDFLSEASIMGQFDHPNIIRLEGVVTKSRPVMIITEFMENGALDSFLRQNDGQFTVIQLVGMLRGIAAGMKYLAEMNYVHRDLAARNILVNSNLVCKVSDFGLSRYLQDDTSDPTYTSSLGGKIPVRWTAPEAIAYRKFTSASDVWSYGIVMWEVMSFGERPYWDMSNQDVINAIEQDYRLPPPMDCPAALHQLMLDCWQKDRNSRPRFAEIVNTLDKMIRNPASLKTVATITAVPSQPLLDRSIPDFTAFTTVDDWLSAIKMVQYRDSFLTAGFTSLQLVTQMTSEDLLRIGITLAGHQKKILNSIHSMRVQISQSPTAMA
Sequence of Macrophage colony-stimulating factor 1 receptor (Homo sapiens) (P07333 whole entry): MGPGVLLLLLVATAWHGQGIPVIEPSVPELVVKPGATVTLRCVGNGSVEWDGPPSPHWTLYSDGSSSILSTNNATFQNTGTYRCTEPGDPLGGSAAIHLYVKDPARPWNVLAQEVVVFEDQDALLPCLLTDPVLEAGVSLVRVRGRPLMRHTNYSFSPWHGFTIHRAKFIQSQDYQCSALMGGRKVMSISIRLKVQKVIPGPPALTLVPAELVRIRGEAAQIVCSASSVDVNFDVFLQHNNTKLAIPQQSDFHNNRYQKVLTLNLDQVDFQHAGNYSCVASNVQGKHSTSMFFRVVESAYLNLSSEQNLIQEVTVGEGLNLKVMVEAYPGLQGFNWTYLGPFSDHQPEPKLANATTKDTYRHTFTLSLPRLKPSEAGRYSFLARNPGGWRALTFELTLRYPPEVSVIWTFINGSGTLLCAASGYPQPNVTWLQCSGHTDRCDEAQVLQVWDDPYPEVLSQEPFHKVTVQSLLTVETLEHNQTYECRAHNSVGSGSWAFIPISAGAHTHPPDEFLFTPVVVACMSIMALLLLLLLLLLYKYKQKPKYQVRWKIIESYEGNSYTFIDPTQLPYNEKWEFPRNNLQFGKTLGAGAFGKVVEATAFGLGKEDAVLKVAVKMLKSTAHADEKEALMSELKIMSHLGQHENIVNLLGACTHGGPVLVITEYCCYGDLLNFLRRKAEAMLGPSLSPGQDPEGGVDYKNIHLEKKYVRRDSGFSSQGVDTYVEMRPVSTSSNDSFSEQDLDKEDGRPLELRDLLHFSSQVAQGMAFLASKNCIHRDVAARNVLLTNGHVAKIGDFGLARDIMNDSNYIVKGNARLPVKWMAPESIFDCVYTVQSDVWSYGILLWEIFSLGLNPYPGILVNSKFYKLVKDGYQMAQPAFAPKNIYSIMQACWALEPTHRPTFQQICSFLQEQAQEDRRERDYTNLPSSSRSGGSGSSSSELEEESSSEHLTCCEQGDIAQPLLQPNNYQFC

What is called IC50 is the concentration at which inhibition is half-maximal. As to `N=C1NC(=O)/C(=C\c2ccc(-c3cccc([N+](=O)[O-])c3)o2)S1`, the concentration for half-maximal inhibition (IC50) in [1] was determined as 49 nM. For the same compound, the Activity in data set [2] worked out at 75%; in [3], 92%; in data set [4] it was 93%; in [5], 51%; in data set [6], 25%; in data set [7] it was 80%. Further, the Activity stood at 115% in data set [8]; 106% in [9]; 21% in data set [11]; 100% in data set [12]; 103% in [13]; 71% in data set [14]. Also, the Activity came out at 103% in [15], 74% in data set [16] and 99% in data set [17]. Also, the activity at 40 min, 1 µM in data set [10] stood at 17%.
For the compound `C=CCOC(=O)c1cc(-c2ccc(/C=C3/NC(=S)NC3=O)o2)ccc1Cl`, the IC50 in data set [1] stood at 33 nM. Further, the Activity in data set [2] amounted to 103%; in data set [3], 74%; in data set [4], 87%; in [5], 74%; in [6], 16%; in data set [7] it was 88%. The Activity was 102% in data set [8]; 117% in data set [9]; 33% in data set [11]; 113% in [12]; 99% in data set [13]; 93% in data set [14]. In addition, the Activity in data set [15] amounted to 104%; in [16], 92%; in [17], 102%. The activity at 40 min, 1 µM in [10] turned out to be 31%.
